Source: ChEMBL document CHEMBL1150102, “Chemical constituents of halophilic facultatively anaerobic bacteria, 1” (J Nat Prod, 1995)
Values after ≈ are worked out from the molar mass of the structure shown. Active and inactive are the calls of the source. The calls are words filed in the database; no cut-off is given here.

Assays:
[1] = Inhibition of tyrosin kinase pp60src
P388 = test: Cytotoxicity against mouse P388 cells; format: functional, cell-based

## CC(C)CC(=O)NCCc1ccc(O)c([N+](=O)[O-])c1
[1]
  Activity: inactive

## N#Cc1c[nH]c2ccccc12
[1]
  Activity: inactive

## O=C(O)Cc1ccc(O)c([N+](=O)[O-])c1
[1]
  Activity: inactive

## CC(C)C(=O)NCCc1ccc(O)c([N+](=O)[O-])c1
[1]
  Activity: inactive
P388
  IC50: 3 µg/mL (≈ 11.9 µM)

## O=C(O)c1c[nH]c2ccccc12
[1]
  Activity: inactive

## CC(C)C(=O)NCCc1ccc(OC(=O)C(C)C)c([N+](=O)[O-])c1
[1]
  Activity: inactive

## CC(C)CC(=O)NCCc1ccc(OC(=O)CC(C)C)c([N+](=O)[O-])c1
[1]
  Activity: inactive

## COC(=O)Cc1ccc(OC)c([N+](=O)[O-])c1
[1]
  Activity: inactive

## O=C(O)Cc1ccccc1
[1]
  Activity: inactive

## O=Cc1c[nH]c2ccccc12
[1]
  Activity: inactive
